The source of these data is US20090069370A1, “AZACYCLYLISOQUINOLINONE AND ISOINDOLINONE DERIVATIVES AS HISTAMINE-3 ANTAGONISTS” (Wyeth, priority 2007, published 2009).

SMILES strings stand for the structures. Structures can show the parent of a compound that is named as a salt.

In general, melting point refers to the temperature, or range, at which the solid turns liquid.

Turning to `CNC(=O)c1ccc(-c2ccc3c(c2)CCN([C@@H]2CCN(C(C)C)C2)C3=O)c(F)c1` (as salt: hydrochloride) [Example 85, 3-fluoro-4-{2-[(3R)-1-isopropylpyrrolidin-3-yl]-1-oxo-1,2,3,4-tetrahydroisoquinolin-6-yl}-N-methylbenzamide], the melting point was in the range of 245 to 247 °C.
In turn, `COC(=O)c1ccc(Oc2ccc3c(c2)CCN(C2CCN(C4CCC4)CC2)C3=O)cc1` (as salt: hydrochloride) [Example 1, methyl 4-{[2-(1-Cyclobutylpiperidin-4-yl)-1-oxo-1,2,3,4-tetrahydroisoquinolin-6-yl]oxy}benzoate] gave a melting point of 269 to 270 °C.
Regarding `CCNC(=O)c1ccc(COc2ccc3c(c2)CCN(C2CCN(C4CCC4)CC2)C3=O)cc1` (as salt: hydrochloride) [Example 17, 4-({[2-(1-Cyclobutylpiperidin-4-yl)-1-oxo-1,2,3,4-tetrahydroisoquinolin-6-yl]oxy}methyl)-N-ethylbenzamide], the melting point lay within 307 to 309 °C.
The compound `O=C(c1ccc(-c2ccc3c(c2)CCN(C2CCN(C4CCCC4)CC2)C3=O)cc1)N1CCCC1` (as salt: hydrochloride) [Example 66, 2-(1-cyclopentylpiperidin-4-yl)-6-[4-(pyrrolidin-1-ylcarbonyl)phenyl]-3,4-dihydroisoquinolin-1(2H)-one] registered a melting point above 300 °C.
As for `CN(C)C(=O)c1ccc(COc2ccc3c(c2)CCN(C2CCN(C4CCC4)CC2)C3=O)cc1` (as salt: hydrochloride) [Example 18, 4-({[2-(1-Cyclobutylpiperidin-4-yl)-1-oxo-1,2,3,4-tetrahydroisoquinolin-6-yl]oxy}methyl)-N,N-dimethylbenzamide], the melting point was 292 to 294 °C.
With `CNC(=O)c1ccc(Oc2ccc3c(c2)CCN([C@@H]2CCN(C4CCCC4)C2)C3=O)cc1` (as salt: hydrochloride) [Example 37, 4-({2-[(3R)-1-cyclopentylpyrrolidin-3-yl]-1-oxo-1,2,3,4-tetrahydroisoquinolin-6-yl}oxy)-N-methylbenzamide], the melting point lay within 223 to 224 °C.
`CCN(CC)C(=O)c1ccc(Oc2ccc3c(c2)CCN(C2CCN(C4CCC4)CC2)C3=O)cc1` (as salt: hydrochloride) [Example 11, 4-{[2-(1-Cyclobutylpiperidin-4-yl)-1-oxo-1,2,3,4-tetrahydroisoquinolin-6-yl]oxy}-N,N-diethylbenzamide] had a melting point of 249 to 251 °C.
Next, `CN1CCC(N2Cc3cc(-c4ccc(C#N)cc4)ccc3C2=O)CC1` (as salt: hydrochloride) [Example 23]: 322 to 323 °C; `CCNC(=O)c1ccc(-c2ccc3c(c2)CCN([C@@H]2CCN(C4CCC4)C2)C3=O)c(F)c1` (as salt: hydrochloride) [Example 77, 4-{2-[(3R)-1-cyclobutylpyrrolidin-3-yl]-1-oxo-1,2,3,4-tetrahydroisoquinolin-6-yl}-N-ethyl-3-fluorobenzamide]: above 205 °C.
In turn, `O=C(NC1CCC1)c1ccc(COc2ccc3c(c2)CCN(C2CCN(C4CCC4)CC2)C3=O)cc1` (as salt: hydrochloride) [Example 19, N-Cyclobutyl-4-({[2-(1-cyclobutylpiperidin-4-yl)-1-oxo-1,2,3,4-tetrahydroisoquinolin-6-yl]oxy}methyl)benzamide] showed a melting point of 286 to 288 °C.
The compound `N#Cc1ccc(-c2ccc3c(c2)CN(C2CCN(CC4CC4)CC2)C3=O)cc1` (as salt: hydrochloride) [Example 26, 4-{2-[1-(Cyclopropylmethyl)piperidin-4-yl]-1-oxo-2,3-dihydro-1H-isoindol-5-yl}benzonitrile] showed a melting point of 309 to 310 °C.
For `O=C(NC1CCC1)c1ccc(-c2ccc3c(c2)CCN([C@@H]2CCN(C4CCC4)C2)C3=O)c(F)c1` (as salt: hydrochloride) [Example 74, N-cyclobutyl-4-{2-[(3R)-1-cyclobutylpyrrolidin-3-yl]-1-oxo-1,2,3,4-tetrahydroisoquinolin-6-yl}-3-fluorobenzamide], the melting point was above 230 °C.
